Experimental data from PubChem BioAssay AID1259407 (Chemical Carcinogenesis Research Information System (CCRIS), 2018).
The source made the active and inactive calls. No rule for the calls is given here.

Test system: CCRIS mutagenicity, Ames/micronucleus/aberration tests
Assay: CCRIS mutagenicity studies
[1] = Test System: AMES SALMONELLA TYPHIMURIUM, Strain/Indicator: TA98, Metabolic Activation: NONE, Method: PREINCUBATION
[2] = Test System: AMES SALMONELLA TYPHIMURIUM, Strain/Indicator: TA98, Metabolic Activation: RAT, LIVER, S-9, AROCLOR 1254, Method: PREINCUBATION
[3] = Test System: CHINESE HAMSTER V-79, Strain/Indicator: V-79/8-AZAGUANINE, Metabolic Activation: NONE, Method: STANDARD PLATE
[4] = Test System: AMES SALMONELLA TYPHIMURIUM, Strain/Indicator: TA97, Metabolic Activation: NONE, Method: STANDARD PLATE
[5] = Test System: AMES SALMONELLA TYPHIMURIUM, Strain/Indicator: TA97, Metabolic Activation: RAT, LIVER, S-9, AROCLOR 1254, Method: STANDARD PLATE
[6] = Test System: AMES SALMONELLA TYPHIMURIUM, Strain/Indicator: TA98, Metabolic Activation: NONE, Method: STANDARD PLATE
[7] = Test System: AMES SALMONELLA TYPHIMURIUM, Strain/Indicator: TA98, Metabolic Activation: RAT, LIVER, S-9, AROCLOR 1254, Method: STANDARD PLATE
[8] = Test System: AMES SALMONELLA TYPHIMURIUM, Strain/Indicator: TA100, Metabolic Activation: NONE, Method: STANDARD PLATE
[9] = Test System: AMES SALMONELLA TYPHIMURIUM, Strain/Indicator: TA100, Metabolic Activation: RAT, LIVER, S-9, AROCLOR 1254, Method: STANDARD PLATE
[10] = Test System: AMES SALMONELLA TYPHIMURIUM, Strain/Indicator: TA104, Metabolic Activation: NONE, Method: STANDARD PLATE
[11] = Test System: CHINESE HAMSTER OVARY, Strain/Indicator: CHO-K1-BH4 (HGPRT), Metabolic Activation: NONE

## Oc1ccc2ccc3cc4ccccc4c4ccc1c2c34
[1]
  mutagenic call: inactive; negative
[2]
  mutagenic call: active; positive
Test System: AMES SALMONELLA TYPHIMURIUM, Strain/Indicator: TA98, Metabolic Activation: RAT, LUNG, S-9, Method: PREINCUBATION
  mutagenic call: active; positive
[3]
  mutagenic call: active; positive
Test System: CHINESE HAMSTER V-79, Strain/Indicator: V-79/OUABAIN, Metabolic Activation: NONE, Method: STANDARD PLATE
  mutagenic call: active; positive

## ClC(Cl)=C(c1ccc(Cl)cc1)c1ccc(Cl)cc1
End Point: IN VITRO CHROMOSOMAL ABERRATIONS, Test System: CHINESE HAMSTER OVARY CELLS, Metabolic Activation: NONE
  mutagenic call: inactive; negative
End Point: IN VITRO CHROMOSOMAL ABERRATIONS, Test System: CHINESE HAMSTER OVARY CELLS, Metabolic Activation: RAT, LIVER, S-9, AROCLOR 1254
  mutagenic call: inactive; negative
[4]
  mutagenic call: inactive; negative
[5]
  mutagenic call: inactive; negative
[6]
  mutagenic call: inactive; negative
[7]
  mutagenic call: inactive; negative
[8]
  mutagenic call: inactive; negative
[9]
  mutagenic call: inactive; negative
[3]
  mutagenic call: active; positive
Test System: MOUSE LYMPHOMA, Strain/Indicator: L5178Y (TK+/TK-), Metabolic Activation: NONE, Method: SUSPENSION/PLATE
  mutagenic call: active; positive

## CCC(=O)Nc1ccc(Cl)c(Cl)c1
[4]
  mutagenic call: inactive; negative
[5]
  mutagenic call: inactive; negative
[6]
  mutagenic call: inactive; negative
[7]
  mutagenic call: inactive; negative
[8]
  mutagenic call: inactive; negative
[9]
  mutagenic call: inactive; negative
[10]
  mutagenic call: inactive; negative
Test System: AMES SALMONELLA TYPHIMURIUM, Strain/Indicator: TA104, Metabolic Activation: RAT, LIVER, S-9, AROCLOR 1254, Method: STANDARD PLATE
  mutagenic call: inactive; negative
[11]
  mutagenic call: inactive; negative
Test System: CHINESE HAMSTER OVARY, Strain/Indicator: CHO-K1-BH4 (HGPRT), Metabolic Activation: RAT, LIVER, S-9, AROCLOR 1254
  mutagenic call: inactive; negative

## CCN(CC)c1ccc(N=Nc2ccc(N=Nc3c(S(=O)(=O)O)cc4ccc(N)cc4c3O)c(OCCO)c2)cc1
[6]
  mutagenic call: inactive; negative
[7]
  mutagenic call: active; positive
[8]
  mutagenic call: inactive; negative
[9]
  mutagenic call: inactive; negative
Test System: AMES SALMONELLA TYPHIMURIUM, Strain/Indicator: TA1538, Metabolic Activation: NONE, Method: STANDARD PLATE
  mutagenic call: inactive; negative
Test System: AMES SALMONELLA TYPHIMURIUM, Strain/Indicator: TA1538, Metabolic Activation: RAT, LIVER, S-9, AROCLOR 1254, Method: STANDARD PLATE
  mutagenic call: active; positive

## ONc1ccc(Cl)c(Cl)c1
[4]
  mutagenic call: inactive; negative
[6]
  mutagenic call: inactive; negative
[8]
  mutagenic call: inactive; negative
[10]
  mutagenic call: inactive; negative
[11]
  mutagenic call: inactive; negative

## COc1ccc(S(=O)(=O)n2ncc(Cl)c(Cl)c2=O)cc1
[6]
  mutagenic call: inactive; negative
[7]
  mutagenic call: inactive; negative
[8]
  mutagenic call: inactive; negative
[9]
  mutagenic call: inactive; negative
Test System: AMES SALMONELLA TYPHIMURIUM, Strain/Indicator: TA1535, Metabolic Activation: NONE, Method: STANDARD PLATE
  mutagenic call: inactive; negative
Test System: AMES SALMONELLA TYPHIMURIUM, Strain/Indicator: TA1535, Metabolic Activation: RAT, LIVER, S-9, AROCLOR 1254, Method: STANDARD PLATE
  mutagenic call: inactive; negative
Test System: AMES SALMONELLA TYPHIMURIUM, Strain/Indicator: TA1537, Metabolic Activation: NONE, Method: STANDARD PLATE
  mutagenic call: inactive; negative
Test System: AMES SALMONELLA TYPHIMURIUM, Strain/Indicator: TA1537, Metabolic Activation: RAT, LIVER, S-9, AROCLOR 1254, Method: STANDARD PLATE
  mutagenic call: inactive; negative

## Cc1ccc2cc3c4c(ccc3c3c2c1C[C@H]3O)[C@H](O)[C@@H](O)C=C4
Test System: CHINESE HAMSTER V-79, Strain/Indicator: V-79/8-AZAGUANINE, Metabolic Activation: RAT, LIVER, S-9, AROCLOR, Method: STANDARD PLATE
  mutagenic call: active; positive

## ClC(Cl)(Cl)c1ccccc1
Test System: AMES SALMONELLA TYPHIMURIUM, Strain/Indicator: TA98, Metabolic Activation: HAMSTER, LIVER, S-9, AROCLOR 1254 (30%), Method: PREINCUBATION
  mutagenic call: active; positive
[1]
  mutagenic call: inactive; negative
Test System: AMES SALMONELLA TYPHIMURIUM, Strain/Indicator: TA98, Metabolic Activation: RAT, LIVER, S-9, AROCLOR 1254 (30%), Method: PREINCUBATION
  mutagenic call: active; positive
[2]
  mutagenic call: active; positive
Test System: AMES SALMONELLA TYPHIMURIUM, Strain/Indicator: TA100, Metabolic Activation: HAMSTER, LIVER, S-9, AROCLOR 1254 (30%), Method: PREINCUBATION
  mutagenic call: active; positive
Test System: AMES SALMONELLA TYPHIMURIUM, Strain/Indicator: TA100, Metabolic Activation: NONE, Method: PREINCUBATION
  mutagenic call: active; positive
Test System: AMES SALMONELLA TYPHIMURIUM, Strain/Indicator: TA100, Metabolic Activation: RAT, LIVER, S-9, AROCLOR 1254 (30%), Method: PREINCUBATION
  mutagenic call: active; positive
Test System: AMES SALMONELLA TYPHIMURIUM, Strain/Indicator: TA100, Metabolic Activation: RAT, LIVER, S-9, AROCLOR 1254, Method: PREINCUBATION
  mutagenic call: active; positive
Test System: AMES SALMONELLA TYPHIMURIUM, Strain/Indicator: TA1535, Metabolic Activation: RAT, LIVER, S-9, AROCLOR 1254, Method: PREINCUBATION
  mutagenic call: active; positive

## O=[N+]([O-])c1cc2c3c(c1)CCc1c4c(cc(c1-3)CC2)CCCC4
Test System: AMES SALMONELLA TYPHIMURIUM, Strain/Indicator: TA98(1,8-DNP6), Metabolic Activation: NONE
  mutagenic call: active; positive
Test System: AMES SALMONELLA TYPHIMURIUM, Strain/Indicator: TA98(1,8-DNP6), Metabolic Activation: RAT, LIVER, S-9, AROCLOR 1254
  mutagenic call: active; positive
Test System: AMES SALMONELLA TYPHIMURIUM, Strain/Indicator: TA98(NR), Metabolic Activation: NONE
  mutagenic call: active; positive
Test System: AMES SALMONELLA TYPHIMURIUM, Strain/Indicator: TA98(NR), Metabolic Activation: RAT, LIVER, S-9, AROCLOR 1254
  mutagenic call: active; positive
Test System: AMES SALMONELLA TYPHIMURIUM, Strain/Indicator: TA98, Metabolic Activation: NONE
  mutagenic call: active; positive
Test System: AMES SALMONELLA TYPHIMURIUM, Strain/Indicator: TA98, Metabolic Activation: RAT, LIVER, S-9, AROCLOR 1254
  mutagenic call: active; positive
Test System: AMES SALMONELLA TYPHIMURIUM, Strain/Indicator: TA100(NR), Metabolic Activation: NONE
  mutagenic call: active; positive
Test System: AMES SALMONELLA TYPHIMURIUM, Strain/Indicator: TA100(NR), Metabolic Activation: RAT, LIVER, S-9, AROCLOR 1254
  mutagenic call: active; positive
Test System: AMES SALMONELLA TYPHIMURIUM, Strain/Indicator: TA100, Metabolic Activation: NONE
  mutagenic call: active; positive
Test System: AMES SALMONELLA TYPHIMURIUM, Strain/Indicator: TA100, Metabolic Activation: RAT, LIVER, S-9, AROCLOR 1254
  mutagenic call: active; positive
Test System: AMES SALMONELLA TYPHIMURIUM, Strain/Indicator: TA104, Metabolic Activation: NONE
  mutagenic call: active; positive
Test System: AMES SALMONELLA TYPHIMURIUM, Strain/Indicator: TA104, Metabolic Activation: RAT, LIVER, S-9, AROCLOR 1254
  mutagenic call: active; positive

## c1cc2c3c(c4c(ccc5ccccc54)cc3c1)C1=C2O1
Test System: CHINESE HAMSTER V-79, Strain/Indicator: V-79/6-THIOGUANINE, Metabolic Activation: NONE, Method: SUSPENSION/PLATE
  mutagenic call: active; positive
